Test results: patent publication US20100184685A1 (priority 2009, published 2010)
Values joined by “and” are separate entries in the source; they are usually repeats but may differ in a detail not shown here. Equal values may be shown once.

Experiments:
post-operative pain [1] = tested on: post-operative pain; set-up: species or system human; settings: in vivo
post-operative pain [2] = settings: in vivo

CCCCN1CCCCC1C(=O)Nc1c(C)cccc1C (stereo not shown) [Marcaine]
pain level on the visual analog pain scale (post-operative pain [1]): 5-6 /10 and 4 /10
pain on the visual analog pain scale (post-operative pain [2]): 3-4 /10
requirement for patient controlled analgesic (PCA) administration during hospitalization (post-operative pain [2]): did not require any patient controlled analgesic (PCA) administration
signs of infection at the previous infusion catheter sites (post-operative pain [2]): without signs of infection
